Assay results: patent US8952024B2, “Herbicidal pyrimidone derivatives” (E I du Pont de Nemours and Company, priority 2009, dated 2015)

Assays:
Format in all cases: in vivo
[1] = test system: barnyardgrass (Echinochloa crus-galli); assay: Test A pre-/postemergence plant response; details: for Barnyardgrass plant response rating: visual injury, 0 to 100 scale (0 no effect, 100 complete control), approx. ten days
Outline: (§1)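 Seeds planted in loam soil/sand blend; test chemicals in non-phytotoxic solvent mixture with surfactant applied as directed soil spray preemergence and, concurrently, postemergence to plants 2–10 cm tall at one- to two-leaf stage. Greenhouse ~10 days; visual injury vs untreated controls, 0 (no effect) to 100 (complete control).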

corn (Zea mays) = assay: Test A pre-/postemergence plant response; details: for Corn plant response rating: visual injury, 0 to 100 scale (0 no effect, 100 complete control), approx. ten days
Outline: as §1

[2] = test system: giant foxtail (Setaria faberii); assay: Test A pre-/postemergence plant response; details: for Foxtail, Giant plant response rating: visual injury, 0 to 100 scale (0 no effect, 100 complete control), approx. ten days
Outline: as §1

[3] = test system: large crabgrass (Digitaria sanguinalis); assay: Test A pre-/postemergence plant response; details: for Crabgrass, Large plant response rating: visual injury, 0 to 100 scale (0 no effect, 100 complete control), approx. ten days
Outline: as §1

[4] = test system: morningglory (Ipomoea spp.); assay: Test A pre-/postemergence plant response; details: for Morningglory plant response rating: visual injury, 0 to 100 scale (0 no effect, 100 complete control), approx. ten days
Outline: as §1

[5] = test system: pigweed (Amaranthus retroflexus); assay: Test A pre-/postemergence plant response; details: for Pigweed plant response rating: visual injury, 0 to 100 scale (0 no effect, 100 complete control), approx. ten days
Outline: as §1

[6] = test system: velvetleaf (Abutilon theophrasti); assay: Test A pre-/postemergence plant response; details: for Velvetleaf plant response rating: visual injury, 0 to 100 scale (0 no effect, 100 complete control), approx. ten days
Outline: as §1

[7] = test system: wheat (Triticum aestivum); assay: Test A pre-/postemergence plant response; details: for Wheat plant response rating: visual injury, 0 to 100 scale (0 no effect, 100 complete control), approx. ten days
Outline: as §1

[8] = test system: winter barley (Hordeum vulgare); assay: Test B postemergence plant response; details: Postemergence
Outline: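 Visual ratings from 0 (no effect) to 100 (complete control), made against controls 13–15 days after treatment, kept in a greenhouse. Compounds were applied postemergence to potted plants at the 1- to 4-leaf stage (2–18 cm).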

[9] = test system: barnyardgrass (Echinochloa crus-galli); assay: Test B flooded paddy test; details: for Plant response rating, Flood, Barnyardgrass: 250 g ai/ha, flooded paddy test, visual rating on 0 to 100 scale (0 no effect, 100 complete control) after 13 to 15 days; for Plant response rating, Barnyardgrass: Flood (flooded paddy test), 13 to 15 days
Outline: (§2)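 Plants were grown to the 2-leaf stage, then pots were flooded to 3 cm above the soil and compounds were applied directly into the paddy water. That depth was held throughout. After 13 to 15 days in a greenhouse, injury was visually rated against controls on a 0–100 scale.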

[10] = test system: ducksalad (Heteranthera limosa); assay: Test B flooded paddy test; details: for Plant response rating, Flood, Ducksalad: 250 g ai/ha, flooded paddy test, visual rating on 0 to 100 scale (0 no effect, 100 complete control) after 13 to 15 days; for Plant response rating, Ducksalad: Flood (flooded paddy test), 13 to 15 days
Outline: as §2

rice (Oryza sativa) = assay: Test B flooded paddy test; details: for Plant response rating, Flood, Rice: 250 g ai/ha, flooded paddy test, visual rating on 0 to 100 scale (0 no effect, 100 complete control) after 13 to 15 days; for Plant response rating, Rice: Flood (flooded paddy test), 13 to 15 days
Outline: as §2

[11] = test system: umbrella sedge (Cyperus difformis); assay: Test B flooded paddy test; details: for Plant response rating, Flood, Sedge, Umbrella: 250 g ai/ha, flooded paddy test, visual rating on 0 to 100 scale (0 no effect, 100 complete control) after 13 to 15 days; for Plant response rating, Sedge, Umbrella: Flood (flooded paddy test), 13 to 15 days
Outline: as §2

[12] = Postemergence, 125 g ai/ha, 0 to 100 scale where 0 is no effect and 100 is complete control
[13] = Preemergence, 125 g ai/ha, 0 to 100 scale, 0 = no effect, 100 = complete control
[14] = Preemergence, 500 g ai/ha, 0 to 100 scale, 0 = no effect, 100 = complete control
[15] = 31 g ai/ha, 0 to 100 scale (0 no effect, 100 complete control)
[16] = 62 g ai/ha, scale 0 to 100 (0 no effect, 100 complete control)
[17] = 125 g ai/ha, scale 0 to 100 (0 no effect, 100 complete control)
[18] = 250 g ai/ha, scale 0 to 100 (0 no effect, 100 complete control), 13 to 15 days
[19] = 62 g ai/ha, scale of 0 to 100 where 0 is no effect and 100 is complete control
[20] = 125 g ai/ha, scale 0 to 100, 0 is no effect, 100 is complete control
[21] = Flood, 31 g ai/ha, scale 0 to 100 (0 no effect, 100 complete control)

O=C(C1=C(O)C2CCC(C2)C1=O)c1cnc(-c2ccsc2)n(CC2CCCO2)c1=O (stereo not drawn) [Compound 229]
Plant response rating, Barnyardgrass [1, 12]: 90
Barnyardgrass plant response rating ([1]; Postemergence, 500 g ai/ha): 100
Plant response rating, Barnyardgrass [1, 13]: 0
Plant response rating, Barnyardgrass [1, 14]: 70
Plant response rating, Corn (corn (Zea mays); [12]): 0
Corn plant response rating (corn (Zea mays); Postemergence, 500 g ai/ha): 40
Plant response rating, Corn (corn (Zea mays); [13]): 0
Plant response rating, Corn (corn (Zea mays); [14]): 0
Plant response rating, Foxtail, Giant [2, 12]: 90
Foxtail, Giant plant response rating ([2]; Postemergence, 500 g ai/ha): 100
Plant response rating, Foxtail, Giant [2, 13]: 50
Plant response rating, Foxtail, Giant [2, 14]: 60
Plant response rating, Crabgrass, Large [3, 12]: 80
Crabgrass, Large plant response rating ([3]; Postemergence, 500 g ai/ha): 100
Plant response rating, Crabgrass, Large [3, 13]: 80
Plant response rating, Crabgrass, Large [3, 14]: 100
Plant response rating, Morningglory [4, 12]: 100
Morningglory plant response rating ([4]; Postemergence, 500 g ai/ha): 100
Plant response rating, Morningglory [4, 13]: 40
Plant response rating, Morningglory [4, 14]: 80
Plant response rating, Pigweed [5, 12]: 100
Pigweed plant response rating ([5]; Postemergence, 500 g ai/ha): 100
Plant response rating, Pigweed [5, 13]: 90
Plant response rating, Pigweed [5, 14]: 100
Plant response rating, Velvetleaf [6, 12]: 100
Velvetleaf plant response rating ([6]; Postemergence, 500 g ai/ha): 100
Plant response rating, Velvetleaf [6, 13]: 100
Plant response rating, Velvetleaf [6, 14]: 100
Plant response rating, Wheat [7, 12]: 0
Wheat plant response rating ([7]; Postemergence, 500 g ai/ha): 20
Plant response rating, Wheat [7, 13]: 0
Plant response rating, Wheat [7, 14]: 0
Plant response rating, Barley [8, 15]: 0
Plant response rating, Barley [8, 16]: 0
Plant response rating, Barley [8, 17]: 5
Plant response rating, Barley [8, 18]: 25
Plant response rating, Flood, Barnyardgrass [9]: 30
Plant response rating, Barnyardgrass [9, 19]: 0
Plant response rating, Barnyardgrass [9, 20]: 0
Barnyardgrass plant response rating [9, 21]: 0
Plant response rating, Flood, Ducksalad [10]: 40
Plant response rating, Ducksalad [10, 19]: 0
Plant response rating, Ducksalad [10, 20]: 0
Ducksalad plant response rating [10, 21]: 0
Plant response rating, Flood, Rice (rice (Oryza sativa)): 20
Plant response rating, Rice (rice (Oryza sativa); [19]): 0
Plant response rating, Rice (rice (Oryza sativa); [20]): 0
Rice plant response rating (rice (Oryza sativa); [21]): 0
Plant response rating, Flood, Sedge, Umbrella [11]: 70
Plant response rating, Sedge, Umbrella [11, 19]: 0
Plant response rating, Sedge, Umbrella [11, 20]: 50
Sedge, Umbrella plant response rating [11, 21]: 0

COCCn1c(-c2cccc(C)c2)ncc(C(=O)C2=C(O)C3CCC(C3)C2=O)c1=O (stereo not drawn) [Compound 233]
Plant response rating, Barnyardgrass [1, 12]: 90
Barnyardgrass plant response rating ([1]; Postemergence, 500 g ai/ha): 90
Plant response rating, Barnyardgrass [1, 13]: 30
Plant response rating, Barnyardgrass [1, 14]: 100
Plant response rating, Corn (corn (Zea mays); [12]): 60
Corn plant response rating (corn (Zea mays); Postemergence, 500 g ai/ha): 80
Plant response rating, Corn (corn (Zea mays); [13]): 0
Plant response rating, Corn (corn (Zea mays); [14]): 0
Plant response rating, Foxtail, Giant [2, 12]: 90
Foxtail, Giant plant response rating ([2]; Postemergence, 500 g ai/ha): 90
Plant response rating, Foxtail, Giant [2, 13]: 20
Plant response rating, Foxtail, Giant [2, 14]: 80
Plant response rating, Crabgrass, Large [3, 12]: 90
Crabgrass, Large plant response rating ([3]; Postemergence, 500 g ai/ha): 90
Plant response rating, Crabgrass, Large [3, 13]: 40
Plant response rating, Crabgrass, Large [3, 14]: 100
Plant response rating, Morningglory [4, 12]: 100
Morningglory plant response rating ([4]; Postemergence, 500 g ai/ha): 100
Plant response rating, Morningglory [4, 13]: 50
Plant response rating, Morningglory [4, 14]: 90
Plant response rating, Pigweed [5, 12]: 100
Pigweed plant response rating ([5]; Postemergence, 500 g ai/ha): 100
Plant response rating, Pigweed [5, 13]: 70
Plant response rating, Pigweed [5, 14]: 100
Plant response rating, Velvetleaf [6, 12]: 100
Velvetleaf plant response rating ([6]; Postemergence, 500 g ai/ha): 100
Plant response rating, Velvetleaf [6, 13]: 60
Plant response rating, Velvetleaf [6, 14]: 80
Plant response rating, Wheat [7, 12]: 20
Wheat plant response rating ([7]; Postemergence, 500 g ai/ha): 60
Plant response rating, Wheat [7, 13]: 0
Plant response rating, Wheat [7, 14]: 40
Plant response rating, Barley [8, 15]: 0
Plant response rating, Barley [8, 16]: 0
Plant response rating, Barley [8, 17]: 10
Plant response rating, Barley [8, 18]: 10
Plant response rating, Flood, Barnyardgrass [9]: 65
Plant response rating, Barnyardgrass [9, 19]: 20
Plant response rating, Flood, Ducksalad [10]: 100
Plant response rating, Ducksalad [10, 19]: 100
Plant response rating, Flood, Rice (rice (Oryza sativa)): 50
Plant response rating, Rice (rice (Oryza sativa); [19]): 25
Plant response rating, Flood, Sedge, Umbrella [11]: 85
Plant response rating, Sedge, Umbrella [11, 19]: 70
